In brackets after ≈: the same amount, converted by molar mass.
Columns and labels:
[1] = system: Sarcoma-180 cells; assay: Antineoplastic activity, mice having Sarcoma-180 cells transplanted subcutaneously; type: in vivo, mouse (female, CDR strain); settings: Mus musculus, Sarcoma-180, iv, 144 h, tumor weighed six days after dosage, read-out: T/C (average tumor weight, dosed vs. solvent-dosed control); for response vs control in vivo at 0.25 mg/kg: i.v. 0.25 mg/kg single dose; for response vs control in vivo at 0.125 mg/kg: i.v. 0.125 mg/kg single dose
Protocol: (§1) The test compound was dissolved in dimethylsulfoxide, and the solution was adequately diluted with 10% Emulfore EL620(produced by Rhone Poulenc Co.) to prepare the test compound solution. The antineoplastic activity was evaluated as below.
To the lateral region of a female mouse (CDR strain, 5 to 6 week age), 3.6×10^6 to 5×10^6 Sarcoma-180 cells were transplanted subcutaneously. Next day, the test medicine solution was injected into the tail vein in a single dose. Eight to twelve mice were employed for the solvent-dosed control group, and five mice were employed for the dosed group. Six days after the dosage, the tumor was cut out, and the weight thereof was measured. The antineoplastic effect was evaluated by the ratio (T/C) of the average tumor weight of the dosed group (T) to the average tumor weight of the solvent-dosed control group (C).

[2] = system: P388 mouse leukemia cells; assay: Activity against tumor cell growth (P388, MTT, 72 h); type: cell-based; settings: P388 mouse leukemia cells, 72 h, 37° C., MTT; read-out: IC50 (50% growth inhibition concentration)
Protocol: Using a culture medium RPMI1640 supplemented with 10% inactivated bovine fetal serum, 2 mM glutamine, 100 μ/ml kanamycin sulfate, and 5 μM 2-hydroxyethyldisulfide (This culture medium is hereinafter referred to simply as "culture medium"), P388 mouse leukemia cells were diluted to a concentration of 1.5×10^5 cells/ml in the culture medium, and were placed in each well of 96-well multiplate in 60 μl portions. Separately, the test compound was dissolved in dimethylsulfoxide and was adequately diluted with the culture medium. The diluted solution containing test compound was added to the wells of the above plate respectively in 60 μl portions. Then the cells were incubated in a CO2 -incubator (5% CO2, 37° C.) for 72 hours.
The surviving cell numbers were measured according to the Mosmann's method (J. Immunol. Meth., 65 55-63, 1983) as follows. A 2.5 mg/ml solution of MTT (3-[4,5-dimethylthiazol-2-yl]-2,5-diphenyltetrazolium bromide) in Dulbecco's phosphate buffer solution (PBS) was prepared and added to each of the wells by 20 μl. The cells were further incubated for 3 hours. A 150 μl portion of 0.04N hydrochloric acid-isopropanol solution was added to each of the wells, and MTT-formazane formed was allowed to dissolve by pipetting. The absorbance of the solutions was measured at 540 nm taking the no-cell-containing [solution as the background. The 50% growth inhibition concentration (ICs50) was calculated from ratio of the absorbances of the treated samples to the absorbance of the no-medicine-treated sample, and from the concentration of the test compound.

[3] = system: Colon-26 cells; assay: Antineoplastic activity, mice having Colon-26 cells transplanted subcutaneously; type: in vivo, mouse (female, CDF1 strain); settings: Mus musculus, Colon 26, iv, 168 h, read-out: T/C (average tumor weight, dosed vs. solvent-dosed control); for response vs control in vivo at 0.5 mg/kg: i.v. 0.5 mg/kg single dose on sixth day, tumor weighed one week after dosage
Protocol: as §1
To the lateral region of a female mouse (CDF1 strain, 8 to 12 week age), 1×10^6 Colon-26 cells were transplanted subcutaneously. On the sixth day after the transplantation, the test medicine solution-was injected into the tail vein in a single dose. Seven to twelve mice were employed for the solvent-dosed control group, and five mice were employed for the dosed group. One week after the dosage, the tumor was cut out, and the weight thereof was measured. The antineoplastic effect was evaluated by the ratio (T/C) of the average tumor weight of the dosed group (T) to the average tumor weight of the solvent-dosed control group (C).

COC(=O)c1c(C(F)(F)F)[nH]c2c(O)cc3c(c12)C(CCl)CN3C(=O)c1cc2cc(NC(=O)c3ccc4ccccc4c3)ccc2[nH]1 (stereo not drawn) [Example 15, Methyl 1-chloromethyl-5-hydroxy-3-[5-[(naphthalene-3-ylcarbonyl)amino]-1H-indol-2-ylcarbonyl]-7-trifluoromethyl-1,2,3,6-tetrahydropyrrolo[3,2-e]indole-8-carboxylate]
response vs control in vivo at 0.5 mg/kg ([1]; i.v. 0.5 mg/kg single dose): 11%
IC50 [2]: 0.83 ng/mL (≈ 1.26 nM)

COC(=O)c1c(C(F)(F)F)[nH]c2c(O)cc3c(c12)C(CCl)CN3C(=O)c1cc2cc(NC(=O)c3cc4c(cn3)[nH]c3ccccc34)ccc2[nH]1 (stereo not drawn) [Example 19, Methyl 1-chloromethyl-5-hydroxy-3-[5-[(9H-pyrido[3,4-b]indol-3-ylcarbonyl)amino]-1H-indol-2ylcarbonyl]-7-trifluoromethyl-1,2,3,6-tetrahydropyrrolo[3,2e]indole-8-carboxylate]
response vs control in vivo at 0.25 mg/kg [1]: 22%
IC50 [2]: 0.11 ng/mL (≈ 0.157 nM)

COC(=O)c1c(C(F)(F)F)[nH]c2c1C13CC1CN(C(=O)c1cc4cc(NC(=O)c5cc6cc(OC)c(OC)c(OC)c6[nH]5)ccc4[nH]1)C3=CC2=O (stereo not drawn) [Example 27, Methyl 6-trifluoromethyl-2-[5-[(5,6,7-trimethoxy-1H indol-2-ylcarbonyl)amino]-1H-indol-2-ylcarbonyl]-1,2,8,8a-tetrahydrocyclopropa[c]pyrrolo[3,2-e]indole-4 (5H)-one-7-carboxylate]
response vs control in vivo at 0.125 mg/kg [1]: 19%
IC50 [2]: 0.17 ng/mL (≈ 0.242 nM)

COC(=O)c1c(C(F)(F)F)[nH]c2c1C13CC1CN(C(=O)c1cc4cc(NC(=O)c5cc6c(OC)c(OC)c(OC)cc6[nH]5)ccc4[nH]1)C3=CC2=O (stereo not drawn) [Example 28, Methyl 6-trifluoromethyl-2-[5-[(4,5,6-trimethoxy-1-H-indol-2-ylcarbonyl)amino]-1H-indol-2-ylcarbonyl]-1,2,8,8a-tetrahydrocyclopropa[c]pyrrolo[3,2-e]indole-4(5H)-one-7-carboxylate]
response vs control in vivo at 0.25 mg/kg [1]: 28%
IC50 [2]: 0.11 ng/mL (≈ 0.156 nM)

COC(=O)c1c(C(F)(F)F)[nH]c2c1C13CC1CN(C(=O)c1cc4cc(NC(=O)c5cc6ccccc6cn5)ccc4[nH]1)C3=CC2=O (stereo not drawn) [Example 31, Methyl 3-[5-[(isoquinolin-3-ylcarbonyl)amino]-1H-indol-2-ylcarbonyl]-6-trifluoromethyl-1,2,8,8a-tetrahydrocyclopropa[c]pyrrolo[3,2-e]indol-4 (5H)-one-7-carboxylate]
response vs control in vivo at 0.125 mg/kg [1]: 24%
IC50 [2]: 0.1 ng/mL (≈ 0.16 nM)

COC(=O)c1c(C(F)(F)F)[nH]c2c1C13CC1CN(C(=O)c1cc4cc(NC(=O)c5cc6c(OC)c(OC)c(OC)cc6cn5)ccc4[nH]1)C3=CC2=O (stereo not drawn) [Example 32, Methyl 6-trifluoromethyl-2-[5-[(5,6,7-trimethoxyisoquinolin-3-ylcarbonyl)amino]-1H-indol-2-ylcarbonyl]-1,2,8,8a-tetrahydrocyclopropa[c]pyrrolo[3,2e]indol-4 (5H)-one-7-carboxylate]
response vs control in vivo at 0.125 mg/kg [1]: 23%
IC50 [2]: 0.09 ng/mL (≈ 0.126 nM)

COC(=O)c1c(C(F)(F)F)[nH]c2c(O)cc3c(c12)C(CBr)CN3C(=O)c1cc2cc(NC(=O)c3cc4ccccc4o3)ccc2[nH]1 (stereo not drawn) [Example 37, Methyl 3-[5-[(benzofuran-2-ylcarbonyl)amino]-1H-indol-2-ylcarbonyl]-1-bromomethyl-5-hydroxy-7-trifluoromethyl-1,2,3,6-tetrahydropyrrolo[3,2-e]indole-8-carboxylate]
response vs control in vivo at 0.25 mg/kg [1]: 24%
IC50 [2]: 0.61 ng/mL (≈ 0.877 nM)

COC(=O)c1c(C(F)(F)F)[nH]c2c(O)cc3c(c12)C(CBr)CN3C(=O)c1cc2cc(NC(=O)c3cc4ccccc4cn3)ccc2[nH]1 (stereo not drawn) [Example 43, Methyl 1-bromomethyl-5-hydroxy-3-[5-[(isoquinolin-3-ylcarbonyl)amino]-1H-indol-2-ylcarbonyl]-7-trifluoromethyl-1,2,3,6-tetrahydropyrrolo[3,2-e]indole-8-carboxylate]
response vs control in vivo at 0.125 mg/kg [1]: 25%
IC50 [2]: 0.1 ng/mL (≈ 0.142 nM)

COC(=O)c1c(C(F)(F)F)[nH]c2c(O)cc3c(c12)C(CCl)CN3C(=O)c1cc2cc(NC(=O)c3cc4c(OC)c(OC)c(OC)cc4nn3)ccc2[nH]1 (stereo not drawn) [Example 50, Methyl 1-chloromethyl-5-hydroxy-7-trifluoromethyl-3-[5-[(5,6,7-trimethoxycinnolin-3-ylcarbonyl)amino]-1H-indol-2-ylcarbonyl]-1,2,3,6-tetrahydropyrrolo[3,2-e]indole-8-carboxylate]
response vs control in vivo at 4 mg/kg ([1]; i.v. 4.0 mg/kg single dose): 15%
IC50 [2]: 4.5 ng/mL (≈ 5.98 nM)

COC(=O)c1c(C(F)(F)F)[nH]c2c(O)cc3c(c12)[C@H](CCl)CN3C(=O)c1cc2cc(NC(=O)c3cc4cccc(OC)c4o3)ccc2[nH]1 [Example 63, Methyl (1S)-1-chloromethyl-5-hydroxy-3-[5-[(7-methoxybenzofuran-2-ylcarbonyl)amino]-1H-indol-2-ylcarbonyl]-7-trifluoromethyl-1,2,3,6-tetrahydropyrrolo[3,2-e]indole-8-carboxylate]
response vs control in vivo at 0.5 mg/kg [3]: 4%
IC50 [2]: 0.55 ng/mL (≈ 0.808 nM)

COC(=O)c1c(C(F)(F)F)[nH]c2c(O)cc3c(c12)[C@H](CCl)CN3C(=O)c1cc2cc(NC(=O)c3cc4c(OC)cccc4o3)ccc2[nH]1 [Example 75, Methyl (1S)-1-chloromethyl-5-hydroxy-3-[5-(4-methoxybenzofuran-2-ylcarbonyl)amino-1H-indol-2-ylcarbonyl]-7-trifluoromethyl-1,2,3,6-tetrahydropyrrolo[3,2-e]indole-8-carboxylate]
response vs control in vivo at 0.5 mg/kg [3]: 17%
IC50 [2]: 0.74 ng/mL (≈ 1.09 nM)

COC(=O)c1c(C(F)(F)F)[nH]c2c(O)cc3c(c12)[C@H](CCl)CN3C(=O)c1cc2cc(NC(=O)c3cc4cc(OC)ccc4o3)ccc2[nH]1 [Example 76, Methyl (1S)-1-chloromethyl-5-hydroxy-3-[5-(5-methoxybenzofuran-2-ylcarbonyl)amino-1H-indol-2-ylcarbonyl]-7-trifluoromethyl-1,2,3,6-tetrahydropyrrolo[3,2-e]indole-8-carboxylate]
response vs control in vivo at 0.5 mg/kg [3]: 6%
IC50 [2]: 0.2 ng/mL (≈ 0.294 nM)

COC(=O)c1c(C(F)(F)F)[nH]c2c(O)cc3c(c12)[C@H](CCl)CN3C(=O)c1cc2cc(NC(=O)c3cc4ccc(OC)cc4o3)ccc2[nH]1 [Example 77, Methyl (1S)-1-chloromethyl-5-hydroxy-3-[5-(6-methoxybenzofuran-2-ylcarbonyl)amino-1H-indol-2-ylcarbonyl]-7-trifluoromethyl-1,2,3,6-tetrahydropyrrolo[3,2-e]indole-8-carboxylate]
response vs control in vivo at 0.5 mg/kg [3]: 6%
IC50 [2]: 0.23 ng/mL (≈ 0.338 nM)

COC(=O)c1c(C(F)(F)F)[nH]c2c(OC(=O)N3CCN(C)CC3)cc3c(c12)[C@H](CCl)CN3C(=O)c1cc2cc(NC(=O)c3cc4cccc(OC)c4o3)ccc2[nH]1 [Example 99, Methyl (1S)-1-chloromethyl-3-[5[(7-methoxybenzofuran-2-ylcarbonyl)amino]-1H-indol-2-ylcarbonyl]-5-(4-methylpiperazin-1-ylcarbonyl)oxy-7-trifluoromethyl-1,2,3,6-tetrahydropyrrolo[3,2-e]indole-8-carboxylate]
response vs control in vivo at 2 mg/kg [3]: 5%

— patent US5629430A, “Trifluoromethylpyrroloindolecarboxylic acid ester and process for production thereof” (Kyorin Pharmaceutical Co., Ltd., priority 1992, dated 1997)
